PubChem BioAssay AID240 (DTP/NCI, 2004)
“And” between values parts separate entries of the source, which are not always exact repeats. Identical values can stand only once. Toxic doses and inconclusive results are not listed.

System: Lymphoma 4 ip in BDF1 mice, median survival
Assay: NCI In Vivo Anticancer Drug Screen. Data for tumor model Lymphoma 4 (intraperitoneal) in B6D2F1 (BDF1) mice
Settings: endpoint: median survival time, schedule: Q01DX010 (ip), vehicle: saline, higher = longer survival
Description: The antitumor activity of compounds was measured in mice bearing transplantable tumors. Survival or tumor size were measured and the results are expressed as the measurement made in the treated group (T) divided by the measurement made in the vehicle treated control group (C). The tumor model used in this assay is Lymphoma 4 (intraperitoneal) in B6D2F1 (BDF1) mice

CN(C)/N=N/c1nc[nH]c1C(N)=O
T/C (dose: 25.0 mg/kg/injection): 114 % of control | T/C (dose: 50.0 mg/kg/injection): 114 % of control | T/C (dose: 200.0 mg/kg/injection): 114 % of control

S=P(N1CCOCC1)(N1CC1)N1CC1
T/C (dose: 0.63 mg/kg/injection): 100 % of control | T/C (dose: 1.25 mg/kg/injection): 100 % of control

N#[N+]c1cnc([O-])[nH]c1=O
T/C (dose: 1.25 mg/kg/injection): 113 % of control | T/C (dose: 5.0 mg/kg/injection): 150 % of control | T/C (dose: 10.0 mg/kg/injection): 176 % of control

CCCNc1ncnc2[nH]ncc12
T/C (dose: 3.13 mg/kg/injection): 109 % of control and 111 % of control | T/C (dose: 6.25 mg/kg/injection): 103 % of control and 123 % of control | T/C (dose: 12.5 mg/kg/injection): 103 % of control and 117 % of control | T/C (dose: 25.0 mg/kg/injection): 91 % of control and 109 % of control

CCOC(=O)c1[nH]c2ccccc2c1CN(CCCl)CCCl
T/C (dose: 10.0 mg/kg/injection): 116 % of control

COc1ccc2c(c1OC)C(=O)O[C@@H]2[C@H]1c2c(cc3c(c2OC)OCO3)CCN1C
T/C (dose: 15.6 mg/kg/injection): 107 % of control | T/C (dose: 31.3 mg/kg/injection): 106 % of control and 107 % of control | T/C (dose: 62.5 mg/kg/injection): 96 % of control and 107 % of control | T/C (dose: 125.0 mg/kg/injection): 93 % of control and 96 % of control | T/C (dose: 250.0 mg/kg/injection): 93 % of control

Cc1cc(N(CCCl)CCCl)ccc1N=Nc1ccccc1C(=O)O
T/C (dose: 10.0 mg/kg/injection): 171 % of control | T/C (dose: 20.0 mg/kg/injection): 150 % of control and 166 % of control

CN1CC[C@]23c4c5ccc(O)c4O[C@H]2C(=O)CC[C@H]3[C@H]1C5
T/C (dose: 4.0 mg/kg/injection): 96 % of control | T/C (dose: 8.0 mg/kg/injection): 100 % of control and 103 % of control | T/C (dose: 16.0 mg/kg/injection): 96 % of control and 100 % of control | T/C (dose: 32.0 mg/kg/injection): 96 % of control and 100 % of control

C[C@@H]1C[C@@H]([C@H](O)CC2CC(=O)NC(=O)C2)C(=O)[C@@H](C)C1
T/C (dose: 5.0 mg/kg/injection): 96 % of control and 105 % of control | T/C (dose: 10.0 mg/kg/injection): 93 % of control and 117 % of control | T/C (dose: 20.0 mg/kg/injection): 117 % of control and 121 % of control | T/C (dose: 40.0 mg/kg/injection): 108 % of control

C#CCN(C)Cc1ccccc1
T/C (dose: 25.0 mg/kg/injection): 93 % of control | T/C (dose: 50.0 mg/kg/injection): 93 % of control | T/C (dose: 100.0 mg/kg/injection): 96 % of control | T/C (dose: 200.0 mg/kg/injection): 96 % of control

CC(=O)Nc1ccc2nc3ccc(NC(C)=O)cc3[n+](-c3ccccc3)c2c1
T/C (dose: 25.0 mg/kg/injection): 111 % of control | T/C (dose: 50.0 mg/kg/injection): 117 % of control
